Assays:
iPS cells 201B7 strain [1] = assay: Cell number during ectodermal differentiation-induction in medium with β-NMN (Example 2); type: cell-based, human; settings: ectoderm differentiation-inducing medium containing β-NMN 0.1, 0.25 or 1 mM; 2nd, 4th, 7th day after seeding; versus medium not containing β-NMN
Protocol: The effect of β-NMN on the ectodermal differentiation-induction of the iPS cells was examined. The 201B7 strain was used as the iPS cells. The iPS cells were seeded in a 12-well plate coated with Matrigel (manufactured by Corning Incorporated) according to the manufacturer's protocol at 8×10^5 cells/well. The cells in the 12-well plate were cultured in a culture medium prepared by adjusting an ectodermal differentiation-inducing culture medium of “STEMdiff Trilineage Differentiation kit” (manufactured by STEMCELL Technologies) to have a final concentration of β-NMN of 0, 0.1, 0.25, or 1 mM, and a final concentration of Rock inhibitor of 10 μM for 1 day. From the 1st day after seeding, the medium was replaced every day with a culture medium obtained by removing the Rock inhibitor from the culture medium at the time of seeding. Cells of the 2nd, 4th or 7th day after seeding were sampled and the cell numbers were counted. The time-dependent change in cell number of each sample is shown in FIG. 2(A), and the cell numbers of the 7th day after seeding are shown in FIG. 2(B). As a result, the number of cells cultured in the ectoderm differentiation-inducing culture medium containing β-NMN was larger than the number of cells cultured in the medium not containing β-NMN.

iPS cells 201B7 strain [2] = assay: Flow cytometry of Brachyury/CD56 mesodermal markers, differentiation-induction in medium with β-NMN (Example 3); type: cell-based, human
Protocol: The effects of β-NMN on the mesodermal differentiation-induction of iPS cells were examined. The 201B7 strain was used as the iPS cells. The iPS cells were seeded in a 24-well plate coated with Matrigel (manufactured by Corning Incorporated) according to the manufacturer's protocol at 1×10^5 cells/well. The cells in the 24-well plate were cultured in a culture medium for iPS cells adjusted to have a final concentration of Rock inhibitor of 10 μM for 1 day. From the 1st day after seeding, the culture medium was replaced with a culture medium prepared by adjusting a mesoderm differentiation-inducing culture medium of “STEMdiff Trilineage Differentiation kit” (manufactured by STEMCELL Technologies) to have a final concentration of β-NMN of 0, 0.1, 0.25, or 1 mM for 1 day. […] Then, the cells were stained with a fluorescence-labeled anti-Brachyury antibody (manufactured by Merck, clone 3E4.2) and a fluorescence-labeled anti-CD56 antibody (manufactured by Biolegend, clone HCD56). After washing the stained cells, a flow cytometer “FACS caliber” (manufactured by Becton, Dickinson and Company) was used to analyze the fluorescence intensity of the anti-Brachyury antibody and the fluorescence intensity of the anti-CD56 antibody in each sample. […]

[3] = system: Human adipose tissue-derived mesenchymal stem cells; assay: Alizarin Red S staining after bone differentiation-induction of mesenchymal stem cells grown with β-NMN (Example 8); type: cell-based; settings: growth medium supplemented with 0.1 mM or 0.25 mM of β-NMN; 14 days after initiation of bone differentiation-induction; compared with 0 mM
Excerpt: The effects of culturing in the presence of β-NMN before bone differentiation-induction of mesenchymal stern cells were examined. Human adipose tissue-derived mesenchymal stem cells (manufactured by Lonza, Cat #PT5006) were used as the mesenchymal stem cells. As a growth medium, a culture medium prepared by appropriately adding β-MNM to “MSCGM Bullet Kit” (manufactured by Lonza, Cat #PT3001) was used. As a bone differentiation-inducing culture medium, a culture medium prepared by adjusting an α-MEM culture medium to have a final concentration of fetal bovine serum of 10% by volume, a final concentration of dexamethasone of 10 nM, a final concentration of β-glycerophosphate of 10 mM, a final concentration of ascorbic acid of 50 μg/mL, and a final concentration of penicillin-streptomycin of 0.1%. The mesenchymal stem cells were seeded in a culture dish at 5×10^3 cells/cm^2 and statically cultured in a growth culture medium not containing β-MNM at 37° C., 5% by volume (CO2) for 1 day. From one day after seeding, the culture medium was replaced every 2 days with a growth culture medium adjusted to have a final concentration of β-MNM of 0, 0.1, or 0.25 mM. Further, when the cell density in the culture dish reached 80 to 90% of the confluent, the cells were passaged. […]

NC(=O)c1ccc[n+]([C@@H]2O[C@H](COP(=O)([O-])O)[C@@H](O)[C@H]2O)c1 [β-NMN, β-nicotinamide mononucleotide]
number of cells (iPS cells 201B7 strain [1]): larger
ratio of Brachyury-positive CD56-positive cells (iPS cells 201B7 strain [2]; mesodermal differentiation-inducing medium with β-NMN 0.1, 0.25 or 1 mM, 5th or 7th day, versus absence of β-NMN): no clear difference
ratio of Brachyury-positive CD56-positive cells (iPS cells 201B7 strain [2]; β-NMN added at 1 mM, versus culturing without β-NMN): obviously lower
calcium deposition (Alizarin Red S staining) [3]: strongly observed

— patent publication US11814652B2, “Pluripotent stem cell differentiation-promoting agent” (Oriental Yeast Co., Ltd., priority 2018, dated 2023)
